Data from paper PMC5154303, “Flavonol and imidazole derivatives block HPV16 E6 activities and reactivate apoptotic pathways in HPV^+ cells” (Cell Death & Disease, 2016).

How the values were obtained:
Assay type in all cases: cell-based, human
SiHa cells [1] = test: Cell toxicity in SiHa cells without TRAIL (MTT); details: overnight
Protocol: Figure 3 (a) HPV^+ SiHa cells are resistant to TRAIL-induced apoptosis as compared with the human osteosarcoma cell line U2OS. Cells (2 × 10^4 cells per well) were seeded into a 96-well plate, allowed to incubate overnight, and then treated with the indicated concentration of TRAIL in the presence of cycloheximide (5 μg/ml). The viability of cells was measured after overnight incubation using the MTT assay; the viability of cells untreated with TRAIL was set at 100% for each group. (b) The indicated concentrations of three small molecules were added to SiHa cells, and an MTT assay was preformed after overnight incubation. The viability of cells untreated with small molecules was set as 100%. (c) The indicated concentrations of myricetin or spinacine were added 4 h prior to TRAIL (100 ng/ml) in the presence of cycloheximide (5 μg/ml) and incubated at 37 °C overnight. […] Cell viability was measured after overnight incubation using the MTT assay, and the viability of cells untreated with either myricetin or spinacine was set at 100%. […]
The extracellular domain of human TRAIL was cloned into a pTriEx expression plasmid containing N-terminal Hisx6 tag. […] All experiments were repeated at least three times (three biological replicates, carried out on different days), with each experimental group measured in triplicate within each of these individual experiments. […]

SiHa cells [2] = test: TRAIL-induced apoptosis in SiHa cells (MTT); details: for viability at 125 µM / EC50: Homo sapiens; for viability at 125 µM: SiHa, 125 μM compound, TRAIL 100 ng/ml + cycloheximide 5 μg/ml, cells without small molecule = 100%, read-out: viability of SiHa cells in the presence of TRAIL; for EC50 / increase in cell death in the presence versus absence of TRAIL: SiHa cells; for EC50: compound 4 h prior to TRAIL 100 ng/ml + cycloheximide 5 μg/ml, overnight, MTT; for increase in cell death in the presence versus absence of TRAIL: from the EC50 values of Table 2
Protocol: Figure 3 (a) HPV^+ SiHa cells are resistant to TRAIL-induced apoptosis as compared with the human osteosarcoma cell line U2OS. Cells (2 × 10^4 cells per well) were seeded into a 96-well plate, allowed to incubate overnight, and then treated with the indicated concentration of TRAIL in the presence of cycloheximide (5 μg/ml). The viability of cells was measured after overnight incubation using the MTT assay; the viability of cells untreated with TRAIL was set at 100% for each group. (b) The indicated concentrations of three small molecules were added to SiHa cells, and an MTT assay was preformed after overnight incubation. The viability of cells untreated with small molecules was set as 100%. (c) The indicated concentrations of myricetin or spinacine were added 4 h prior to TRAIL (100 ng/ml) in the presence of cycloheximide (5 μg/ml) and incubated at 37 °C overnight. The viability of cells untreated with small molecules was set at 100%. (d and e) SiHa cells (2 × 10^4 cells per well) were seeded into a 96-well plate and allowed to incubate overnight. In all, 100 μM of myricetin and 50 μM of spinacine were added 4 h prior to either (d) doxorubicin or (e) cisplatin. Cell viability was measured after overnight incubation using the MTT assay, and the viability of cells untreated with either myricetin or spinacine was set at 100%. Experiments were performed in triplicate, and error bars indicate the S.D.
Figure 5 Myricetin and spinacine (5) can re-sensitize HPV^+, but not HPV^−, cells to treatment with TRAIL. SiHa (2 × 10^4 cells per well) and C33A cells (1 × 10^4 cells per well) were seeded into a 96-well plate and allowed to incubate overnight, and then cells were pretreated in the presence or absence of (a) myricetin (100 μM) or (b) spinacine (50 μM) for 4 h. The indicated concentration of TRAIL along with cycloheximide (5 μg/ml) was added, and the cells were allowed to incubate overnight. Cell viability was measured by MTT assay, and the viability of cells untreated with TRAIL was set at 100%. Experiments were performed in triplicate, and error bars indicate the S.D.
The extracellular domain of human TRAIL was cloned into a pTriEx expression plasmid containing N-terminal Hisx6 tag. His-TRAIL was expressed in the E. coli BL-21 pLys strain and purified as previously described. Doxorubicin and cisplatin were purchased from Sigma. His-TRAIL, doxorubicin, and cisplatin were diluted in PBS to the desired concentration before using. To measure cell survival following treatment with TRAIL, cisplatin and doxorubicin, SiHa (2 × 10^4/well), C33A (1 × 10^4/well), and HNSCC cells (2 × 10^4/well) were seeded into 96-well plates and allowed to adhere overnight. Small molecules at the desired concentration were added and incubated at 37 °C for 4 h. As indicated, TRAIL, cisplatin, or doxorubicin was then added. The TRAIL treatment group contained cycloheximide (5 μg/ml) to inhibit de novo protein synthesis, and the cells were incubated for 16 h prior to measuring cell viability by the MTT assay preformed as described previously.[38] All experiments were repeated at least three times (three biological replicates, carried out on different days), with each experimental group measured in triplicate within each of these individual experiments. Data presented are from a representative experiment.

p53 [3] = test: p53 ELISA in C33A cells; details: C33A cells (HPV−, mutant p53), with 4 μg/ml mitomycin C, 24 h
Protocol: (§1) Figure 6 Treatment with myricetin and spinacine (5) increases cellular levels of caspase 8 and p53. (a) SiHa cells (1 × 10^6 per well) were seeded into a six-well plate and allowed to incubate overnight. The indicated concentrations of myricetin and spinacine were added, and then cells were incubated for 24 h. Cells were then washed in 1 × PBS and then harvested, and the resulting level of caspase 8 was measured by immunoblot. (b) SiHa and C33A cells (1 × 10^6 per well) were seeded into a six-well plate and allowed to incubate overnight. In all, 200 μM of myricetin and 100 μM spinacine were added together with 4 μg/ml mitomycin C and incubated for 24 h. The resulting level of p53 was measured by enzyme-linked immunosorbent assay, and the level of p53 found in untreated cells was set at 100%. Experiments were performed in triplicate, and error bars indicate the S.D.
(§2) The p53 ELISA was performed as described previously,[26] with some modifications. Antibodies secreted by clone pAb122 (hybridoma obtained from ATCC, antibodies purified from the culture medium using protein-A Sepharose) were used as monoclonal capture antibodies. […] The average and S.D. of the replicates (a minimum of three) were calculated, normalized to the control, and used to prepare the graph.

p53 [4] = test: p53 ELISA in SiHa cells; details: with 4 μg/ml mitomycin C, 24 h
Protocol: as §1, §2

Row | Structure (SMILES) | toxicity to SiHa cells in the absence of TRAIL (SiHa cells [1]) | sensitivity of SiHa cells to TRAIL (SiHa cells [2]; 100 μM myricetin pretreatment 4 h, TRAIL up to 100 ng/ml + cycloheximide) | viability at 125 µM (SiHa cells [2]) [%] | EC50 (SiHa cells [2]) [µM] | increase in cell death in the presence versus absence of TRAIL (SiHa cells [2]) [fold] | change in p53 levels (p53 [3]; 200 μM) | increase in p53 compared with untreated cells (p53 [4]; 200 μM) [fold] | change in p53 levels (p53 [3]; 100 μM) | increase in p53 compared with untreated cells (p53 [4]; 100 μM) [fold]
1 | O=c1c(O)c(-c2cc(O)c(O)c(O)c2)oc2cc(O)cc(O)c12 [Myricetin, myricetin, reference compound] | low toxicity | increased dramatically | 30 to 40 | 155 | 3.5 | no significant change | 4.4 | – | –
2 | O=C(O)C1Cc2[nH]cnc2CN1 (stereo not shown) [Spinacine (5), 4,5,6,7-tetrahydro-1H-imidazo[4,5–c]pyridine-6-carboxylic acid] | low toxicity | – | 30 to 40 | 31.3 | 8.6 | – | – | no significant change | 3.4
